Experimental data: patent US4353904A, “Phenylpiperazine derivatives of 1,3,4-oxadiazolylphenols, and therapeutic agents containing these compounds” (BASF Aktiengesellschaft, priority 1980, dated 1982)

Legend:
blood pressure = assay: Hypotensive action in rats under urethane narcosis (carotid artery blood pressure, intravenous administration); format: in vivo, male Sprague-Dawley rats; details: rat; for ED20: iv, urethane narcosis 1.78 g/kg i.p., compound i.v. into jugular vein, read-out: Hypotensive action ED 20% (dose which caused a 20% reduction in blood pressure); for Hypotensive action R.A. (relative activity, Urapidil = 1.00): urethane narcosis, i.v., relative to Urapidil = 1.00
Method: Male Sprague-Dawley rats weighing 220-280 g were used, under urethane narcosis (1.78 g/kg, administered intraperitoneally) for the investigation. The blood pressure was measured directly in the carotid artery. The compound was administered intravenously into the jugular vein. The dose (mg/kg) which caused a 20% reduction in blood pressure was determined as the ED 20%. | ^(1) Rat. Urethane narcosis. Intravenous administration. | ^(2) Relative activity.

[1] = Acute toxicity, intraperitoneal administration; details: in vivo, ip, mouse, groups of 10 female NMRI mice, read-out: Toxicity LD 50
Method: In addition to the hypotensive action, the acute toxicity (LD 50, mg/kg), for intraperitoneal administration, was determined for groups of 10 female NMRI mice, weighing 22-27 g.
^(3) Mouse. Intraperitoneal

[2] = Therapeutic range / therapeutic index (quotient of LD 50 and ED 20%); details: in vivo; quotient of LD 50 (mouse i.p.) and ED 20% (rat i.v.)
Text: The therapeutic range is the quotient of the LD 50 and the ED 20%.

SMILES	ED20 (blood pressure) [mg/kg]	Hypotensive action R.A. (relative activity, Urapidil = 1.00) (blood pressure)	LD50 [1] [mg/kg]	selectivity ratio [2]
COc1ccccc1N1CCN(CC(O)COc2ccccc2-c2nnc(C)o2)CC1 (stereo not shown) [Example 2]	0.0221	8.55	56.2	2540
COc1ccccc1N1CCN(CC(O)COc2cccc(-c3nnco3)c2)CC1 (stereo not shown) [Example 7, 1-[3-(1,3,4-Oxadiazol-2-yl)-phenoxy]-3-[4-(2-methoxyphenyl)piperazin-1-yl]-propan-2-ol]	0.0754	2.51	215	2850
CCOc1ccccc1N1CCN(CC(O)COc2cccc(-c3nnco3)c2)CC1 (stereo not shown) [Example 9, 1-[3-(1,3,4-Oxadiazol-2-yl)-phenoxy]-3-[4-(2-ethoxyphenyl)-piperazin-1-yl]-propan-2-ol]	0.0084	22.50	215	25600
COc1ccccc1N1CCN(CC(O)COc2cccc(-c3nnc(C)o3)c2)CC1 (stereo not shown) [Example 10, 1-[3-(5-Methyl-1,3,4-oxadiazol-2-yl)-phenoxy]-3-[4-(2-methoxyphenyl)-piperazin-1-yl]-propan-2-ol]	0.0333	5.68	224	6730
CCOc1ccccc1N1CCN(CC(O)COc2cccc(-c3nnc(C)o3)c2)CC1 (stereo not shown) [Example 12, 1-[3-(5-Methyl-1,3,4-oxadiazol-2-yl)-phenoxy]-3-[4-(2-ethoxyphenyl)-piperazin-1-yl]-propan-2-ol]	0.0195	9.69	162	8300
Cc1nnc(-c2cccc(OCC(O)CN3CCN(c4ccccc4Cl)CC3)c2)o1 (stereo not shown) [Example 16, 1-[3-(5-Methyl-1,3,4-oxadiazol-2-yl)-phenoxy]-3-[4-(2-chlorophenyl)-piperazin-1-yl]-propan-2-ol]	0.0716	2.64	178	2490
COc1ccccc1N1CCN(CCCNc2cc(=O)n(C)c(=O)n2C)CC1 [Urapidil, 6-{3-[4-(2-methoxyphenyl)-piperazin-1-yl]-propylamino}-1,3-dimethyluracil, reference compound]	0.189	1.00	362	1920
